# ChEMBL document CHEMBL5214895, “3-Hydroxy-propanamidines, a New Class of Orally Active Antimalarials Targeting Plasmodium falciparum” (J Med Chem, 2021)
# pIC50: −log10 of the molar value. The source made the active and inactive calls. No cut-off for these calls is given here.
# Experiments:
# Plasmodium berghei [1] = experiment: Antimalarial activity against Plasmodium berghei infected in mouse assessed as mean survival days at 30 mg/kg, po administered for 4 times starting from 4 to 72 hrs and monitered for 30 days (reference value: 4 days); format: functional; settings: time 30 day
# [2] = AUC(0 to t) in mouse infected with Plasmodium berghei at 3 mg/kg, po administered as single dose and measured for 24 hrs by LC-MS/MS analysis; format: ADME, organism-based; parameters: dose 3 mg/kg, time 24 hrs, route po; settings: in vivo
# [3] = Cytotoxicity against human HepG2 cells assessed as inhibition of cell growth incubated for 24 hrs by neutral red dye based analysis; format: toxicity
# [4] = Elimination half life in mouse infected with Plasmodium berghei at 3 mg/kg, po administered as single dose and measured for 24 hrs by LC-MS/MS analysis; format: ADME, organism-based; settings: in vivo, read-out: beta t1/2 (converted)
# Plasmodium falciparum [5] = experiment: Antiplasmodial activity against hyper mutating Plasmodium falciparum Dd2 harboring proofreading-deficient DNA polymerase delta assessed as inhibition of parasite growth incubated for 72 hrs by SYBR green-based assay; format: functional, organism-based; settings: Dd2, 72 h
# [6] = Cytotoxicity against human HeLa cells assessed as inhibition of cell growth incubated for 24 hrs by neutral red dye based analysis; format: toxicity
# [7] = Cmax in mouse infected with Plasmodium berghei at 10 mg/kg, po administered as single dose and measured for 24 hrs by LC-MS/MS analysis; format: ADME, organism-based; parameters: dose 10 mg/kg, time 24 hrs, route po; settings: in vivo
# Plasmodium falciparum [8] = experiment: Antiplasmodial activity against sorbitol-synchronized early ring stage plasmodium falciparum NF54 trophozoites assessed as inhibition of parasite growth incubated for 72 hrs by SYBR green-based parasite susceptibility assay; format: functional, organism-based; settings: NF54, 72 h
# [9] = Cmax in mouse infected with Plasmodium berghei at 30 mg/kg, po administered as single dose and measured for 24 hrs by LC-MS/MS analysis; format: ADME, organism-based; parameters: dose 30 mg/kg, time 24 hrs, route po; settings: in vivo
# [10] = Elimination half life in mouse infected with Plasmodium berghei at 30 mg/kg, po administered as single dose and measured for 24 hrs by LC-MS/MS analysis; format: ADME, organism-based; settings: in vivo, read-out: beta t1/2 (converted)
# [11] = Tmax in mouse infected with Plasmodium berghei at 30 mg/kg, po administered as single dose and measured for 24 hrs by LC-MS/MS analysis; format: ADME, organism-based; settings: in vivo
# [12] = Tmax in mouse infected with Plasmodium berghei at 10 mg/kg, po administered as single dose and measured for 24 hrs by LC-MS/MS analysis; format: ADME, organism-based; settings: in vivo
# [13] = Elimination half life in mouse infected with Plasmodium berghei at 10 mg/kg, po administered as single dose and measured for 24 hrs by LC-MS/MS analysis; format: ADME, organism-based; settings: in vivo, read-out: beta t1/2 (converted)
# [14] = AUC(0 to t) in mouse infected with Plasmodium berghei at 30 mg/kg, po administered as single dose and measured for 24 hrs by LC-MS/MS analysis; format: ADME, organism-based; parameters: dose 30 mg/kg, time 24 hrs, route po; settings: in vivo
# [15] = Chemical stability of compound in Tween20/ethanol/phosphate buffer at pH 7.5 assessed as drug degradation measured over 24 hrs; format: physicochemical; settings: read-out: Drug degradation
# [16] = Tmax in mouse infected with Plasmodium berghei at 3 mg/kg, po administered as single dose and measured for 24 hrs by LC-MS/MS analysis; format: ADME, organism-based; settings: in vivo
# [17] = Selectivity index, ratio of IC50 for cytotoxicity against human HepG2 cells to IC50 for antiplasmodial activity against chloroquine-sensitive asexual blood stage Plasmodium falciparum 3D7; format: toxicity, cell-based; settings: read-out: Ratio IC50
# Plasmodium berghei [18] = experiment: Antimalarial activity against Plasmodium berghei infected in mouse assessed as mean survival days at 50 mg/kg, po administered for 4 times starting from 4 to 72 hrs and monitered for 30 days (reference value: 4 days); format: functional; settings: time 30 day
# [19] = Cmax in mouse infected with Plasmodium berghei at 3 mg/kg, po administered as single dose and measured for 24 hrs by LC-MS/MS analysis; format: ADME, organism-based; parameters: time 24 hrs, dose 3 mg/kg, route po; settings: in vivo
# Plasmodium falciparum [20] = experiment: Inhibition of hemozoin formation in sorbitol-synchronized early ring stage plasmodium falciparum NF54 trophozoites assessed as increase in free heme level at 2.5 times IC50 incubated for 28 hrs by flow cytometry analysis; format: functional
# [21] = Observed AUC(0 to infinity) in mouse infected with Plasmodium berghei at 30 mg/kg, po administered as single dose and measured for 24 hrs by LC-MS/MS analysis; format: ADME, organism-based; parameters: dose 30 mg/kg, time 24 hrs, route po; settings: in vivo
# Plasmodium falciparum [22] = experiment: Induction of drug resistance in Plasmodium falciparum Dd2 clone FL2-C4 assessed as fold increase in IC50 incubated for 72 hrs by SYBR green-based assay; format: functional
# Plasmodium berghei [23] = experiment: Antimalarial activity against Plasmodium berghei infected in mouse assessed as reduction in parasitemia in blood at 10 mg/kg, po administered for 4 times starting from 4 to 72 hrs and measured after 96 hrs post infection (reference value: 0%); format: functional; parameters: scale not given: the % may be the effect or the level left
# [24] = Observed AUC(0 to infinity) in mouse infected with Plasmodium berghei at 3 mg/kg, po administered as single dose and measured for 24 hrs by LC-MS/MS analysis; format: ADME, organism-based; parameters: dose 3 mg/kg, time 24 hrs, route po; settings: in vivo
# [25] = Observed AUC(0 to infinity) in mouse infected with Plasmodium berghei at 10 mg/kg, po administered as single dose and measured for 24 hrs by LC-MS/MS analysis; format: ADME, organism-based; parameters: dose 10 mg/kg, time 24 hrs, route po; settings: in vivo
# [26] = target: Voltage-gated inwardly rectifying potassium channel KCNH2 (Homo sapiens, UniProt Q12809); experiment: Inhibition of hERG by fluorescence polarization assay; format: toxicity
# Plasmodium berghei [27] = experiment: Antimalarial activity against Plasmodium berghei infected in mouse assessed as reduction in parasitemia in blood at 50 mg/kg, po administered for 4 times starting from 4 to 72 hrs and measured after 96 hrs post infection (reference value: 0%); format: functional; parameters: scale not given: the % may be the effect or the level left
# [28] = Chemical stability of compound in Tween20/ethanol/phosphate buffer at pH 2 assessed as drug degradation measured over 24 hrs; format: physicochemical; settings: read-out: Drug degradation
# [29] = Half life in mouse infected with Plasmodium berghei at 30 mg/kg, po administered as single dose and measured for 24 hrs by LC-MS/MS analysis; format: ADME, organism-based; settings: in vivo
# [30] = Metabolic stability in human liver microsomes assessed as intrinsic clearance; format: ADME, Microsome
# Plasmodium berghei [31] = experiment: Antimalarial activity against Plasmodium berghei infected in mouse assessed as reduction in parasitemia in blood at 30 mg/kg, po administered for 4 times starting from 4 to 72 hrs and measured after 96 hrs post infection (reference value: 0%); format: functional; parameters: scale not given: the % may be the effect or the level left
# [32] = Half life in mouse infected with Plasmodium berghei at 10 mg/kg, po administered as single dose and measured for 24 hrs by LC-MS/MS analysis; format: ADME, organism-based; settings: in vivo
# Plasmodium falciparum [33] = experiment: Antiplasmodial activity against multidrug resistant asexual blood stage Plasmodium falciparum Dd2-B2 assessed as inhibition of parasite growth incubated for 72 hrs by SYBR green-based assay; format: functional, organism-based; settings: Dd2-B2, 72 h
# [34] = AUC(0 to t) in mouse infected with Plasmodium berghei at 10 mg/kg, po administered as single dose and measured for 24 hrs by LC-MS/MS analysis; format: ADME, organism-based; parameters: time 24 hrs, dose 10 mg/kg, route po; settings: in vivo
# [35] = Half life in mouse infected with Plasmodium berghei at 3 mg/kg, po administered as single dose and measured for 24 hrs by LC-MS/MS analysis; format: ADME, organism-based; settings: in vivo
# [36] = Cytotoxicity against HEK293 cells assessed as inhibition of cell growth incubated for 24 hrs by neutral red dye based analysis; format: toxicity; settings: human
# [37] = Metabolic stability in human liver microsomes assessed as parent compound remaining at 2 uM incubated for 40 mins in presence of NADPH by LC-MS/MS analysis; format: ADME, Microsome; settings: read-out: Stability
# Plasmodium falciparum [38] = experiment: Antiplasmodial activity against chloroquine-sensitive asexual blood stage Plasmodium falciparum 3D7 assessed as inhibition of parasite growth incubated for […] by HRP2-ELISA; format: functional, organism-based
# Plasmodium falciparum [39] = experiment: Inhibition of hemozoin formation in sorbitol-synchronized early ring stage plasmodium falciparum NF54 trophozoites assessed as reduction in hemozoin level at 2.5 times IC50 incubated for 28 hrs by flow cytometry analysis; format: functional
# Plasmodium falciparum [40] = experiment: Antiplasmodial activity against multidrug resistant asexual blood stage Plasmodium falciparum Dd2 assessed as inhibition of parasite growth incubated for […] by HRP2-ELISA; format: functional, organism-based
# Plasmodium falciparum [41] = experiment: Induction of drug resistance in Plasmodium falciparum Dd2 clone FL3-C3 assessed as fold increase in IC50 incubated for 72 hrs by SYBR green-based assay; format: functional
# Plasmodium berghei [42] = experiment: Antimalarial activity against Plasmodium berghei infected in mouse assessed as reduction in parasitemia in blood at 3 mg/kg, po administered for 4 times starting from 4 to 72 hrs and measured after 96 hrs post infection (reference value: 0 %); format: functional; parameters: scale not given: the % may be the effect or the level left
# Voltage-gated inwardly rectifying potassium channel KCNH2, sequence (Q12809 whole entry): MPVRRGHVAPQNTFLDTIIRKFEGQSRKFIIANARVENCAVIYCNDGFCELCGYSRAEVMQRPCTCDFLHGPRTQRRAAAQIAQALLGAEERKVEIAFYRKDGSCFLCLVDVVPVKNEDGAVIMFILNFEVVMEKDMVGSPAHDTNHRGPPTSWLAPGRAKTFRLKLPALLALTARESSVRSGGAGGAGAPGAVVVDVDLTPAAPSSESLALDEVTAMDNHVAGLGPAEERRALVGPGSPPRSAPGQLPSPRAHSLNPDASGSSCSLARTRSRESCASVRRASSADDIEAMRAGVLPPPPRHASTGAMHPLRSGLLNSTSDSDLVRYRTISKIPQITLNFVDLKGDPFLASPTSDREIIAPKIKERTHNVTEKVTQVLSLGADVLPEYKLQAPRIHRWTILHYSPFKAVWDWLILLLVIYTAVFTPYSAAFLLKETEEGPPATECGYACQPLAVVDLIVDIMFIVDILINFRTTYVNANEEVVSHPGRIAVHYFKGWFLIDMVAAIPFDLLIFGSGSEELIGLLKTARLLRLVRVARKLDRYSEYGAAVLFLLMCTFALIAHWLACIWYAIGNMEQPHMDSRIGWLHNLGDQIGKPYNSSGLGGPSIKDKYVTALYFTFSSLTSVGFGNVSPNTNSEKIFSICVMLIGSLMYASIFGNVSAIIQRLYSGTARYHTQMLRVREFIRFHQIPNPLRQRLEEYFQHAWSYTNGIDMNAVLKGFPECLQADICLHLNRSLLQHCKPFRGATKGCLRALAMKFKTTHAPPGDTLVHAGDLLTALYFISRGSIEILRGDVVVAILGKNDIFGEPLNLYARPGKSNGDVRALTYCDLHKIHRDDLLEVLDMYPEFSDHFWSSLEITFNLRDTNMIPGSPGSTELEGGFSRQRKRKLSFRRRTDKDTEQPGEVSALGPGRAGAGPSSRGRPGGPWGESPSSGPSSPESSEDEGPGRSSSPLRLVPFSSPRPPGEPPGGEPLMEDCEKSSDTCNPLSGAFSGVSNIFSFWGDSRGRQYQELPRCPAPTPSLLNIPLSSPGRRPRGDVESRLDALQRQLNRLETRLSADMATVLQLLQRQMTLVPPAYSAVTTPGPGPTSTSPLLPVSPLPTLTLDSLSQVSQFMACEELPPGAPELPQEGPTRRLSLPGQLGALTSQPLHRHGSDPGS
smiles,measurement,setting,value
COc1ccc(/N=C(\N)CC(O)c2cc3c(F)cc(F)cc3c3cc(C(F)(F)F)ccc23)cc1.Cl (configuration not stated),MSD,Plasmodium berghei [1],17 days
same,AUCt,[2],20.4 ng·h/mL
same,IC50 at 24 h,[3],4.3 µM
same,half-life,[4],7.58 min
same,pIC50,Plasmodium falciparum [5],7.82
same,IC50 at 24 h,[6],46.1 µM
same,Cmax,[7],23 ng/mL
same,pIC50,Plasmodium falciparum [8],8.08
same,Cmax,[9],57.3 ng/mL
same,half-life,[10],4.18 min
same,Tmax,[11],1 h
same,Tmax,[12],1 h
same,half-life,[13],7.91 min
same,AUCt,[14],783.1 ng·h/mL
same,degraded at 24 h,[15],1%
same,Tmax,[16],1 h
same,selectivity ratio,[17],860
same,MSD,Plasmodium berghei [18],27 days
same,Cmax,[19],3.3 ng/mL
same,inhibition,Plasmodium falciparum [20],Active
same,AUC,[21],848.1 ng·h/mL
same,fold change (FC),Plasmodium falciparum [22],3
same,Activity,Plasmodium berghei [23],99.9%
same,AUC,[24],21.5 ng·h/mL
same,AUC,[25],199.7 ng·h/mL
same,pIC50,[26],6.72
same,Activity,Plasmodium berghei [27],99.8%
same,degraded at 24 h,[28],0.1%
same,t1/2,[29],7.02 h
same,CLH,[30],9 µL/min/mg
same,Activity,Plasmodium berghei [31],99.9%
same,t1/2,[32],4.13 h
same,pIC50,Plasmodium falciparum [33],7.82
same,AUCt,[34],192.1 ng·h/mL
same,t1/2,[35],5.21 h
same,IC50 at 24 h,[36],36.8 µM
same,"remaining at 40 min, 2 µM",[37],86%
same,pIC50,Plasmodium falciparum [38],8.30
same,inhibition,Plasmodium falciparum [39],Active
same,pIC50,Plasmodium falciparum [40],7.92
same,fold change (FC),Plasmodium falciparum [41],3
same,Activity,Plasmodium berghei [42],0%
